Reference: the supplement of paper PMC11208160

Assay: recombinant UMI read abundance after kanamycin selection (control-corrected) (log10(CPM+1)); higher = more efficient recombination; extreme values may be limits of the assay; sequences stand for … in AGTGCAGAGAAAATCGGCCAGTTTTCTCTGCCTGCAGTCCGCATGCCGTGGGACCCCTTGGGTTCTAACCTGTTGCCTAGATTTATGCAGCGGACTGCCTTTCTCCCAAAGTGATAAACCGG…AGGTTGGTTTCACT; site = the 11-nt donor
Procedure, shortened: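 The measure is log10(CPM+1) for recombinant UMIs. These were PCR-amplified across the donor–target junction and sequenced after Escherichia coli carrying a donor and donor-binding-loop pair library and a target plasmid with T7-inducible IS621 bridge recombinase was plated on IPTG (0.07 mM) plus kanamycin or unselected. CPM were averaged over two replicates and scaled by control-derived factors.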
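Note: IS621 bridge recombinase in Escherichia coli cells against a fixed T5 target plasmid.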

| Sequence | recombinant UMI read abundance (log10) |
| --- | --- |
| TACTTGACATGGACCGGTTTTCCCGGTAATCCGTATTTGAT (site TACTTGACTAT) | 0.476 |
| CCCTTCTCATGGACCGGTTTTCCCGGTAATCCGTATTTGGG (site CCATTCTCTCC) | 0 |
| AGCCTTTCATGGACCGGTTTTCCCGGTAATCCGTATTTGAA (site AGCCTTTCTCT) | 0.00501 |
| TTCGCTGCATGGACCGGTTTTCCCGGTAATCCGTATTTGTG (site TTGGCTGCTCA) | 0.0131 |
| TTGCGCACATGGACCGGTTTTCCCGGTAATCCGTATTTGTG (site TTGCGCACTCA) | 0.0258 |
| CAAGTCACATGGACCGGTTTTCCCGGTAATCCGTATTTGGG (site CAACTCACTCC) | 0.177 |
| TTAGCTGCATGGACCGGTTTTCCCGGTAATCCGTATTTGTC (site TTAGCTGCTCA) | 0.00796 |
| CCAGGGGCATGGACCGGTTTTCCCGGTAATCCGTATTTGAT (site CCAGGCGCTAT) | 0.972 |
| ATGTGGGCATGGACCGGTTTTCCCGGTAATCCGTATTTGGC (site ATGTGGGCTGC) | 3.01 |
| GCGACTGCATGGACCGGTTTTCCCGGTAATCCGTATTTGCC (site GCCACTGCTGG) | 0.516 |
| ACAGTATCATGGACCGGTTTTCCCGGTAATCCGTATTTGCA (site ACATTATCTGG) | 0 |
| AAGTAGGCATGGACCGGTTTTCCCGGTAATCCGTATTTGGC (site ACGTAGGCTGC) | 1.04 |
| AATTGGACATGGACCGGTTTTCCCGGTAATCCGTATTTGAC (site AATTGGACTGT) | 1.21 |
| GCACGACCATGGACCGGTTTTCCCGGTAATCCGTATTTGCA (site GCACGACCTTG) | 0 |
| CAATCATCATGGACCGGTTTTCCCGGTAATCCGTATTTGCC (site CGATCATCTAG) | 0 |
| GCTTGCCCATGGACCGGTTTTCCCGGTAATCCGTATTTGAT (site GCTTGCCCTTT) | 0.0171 |
| GCACTTGCATGGACCGGTTTTCCCGGTAATCCGTATTTGGC (site GCACTTGCTGC) | 2.1 |
| TAGCGGCCATGGACCGGTTTTCCCGGTAATCCGTATTTGAA (site TAGCGGCCTTT) | 0.205 |
| CGATCGACATGGACCGGTTTTCCCGGTAATCCGTATTTGTA (site CGATCGACTAA) | 0 |
| CTACTAACATGGACCGGTTTTCCCGGTAATCCGTATTTGGA (site CTACCAACTTC) | 0.307 |
| GATTGGACATGGACCGGTTTTCCCGGTAATCCGTATTTGAC (site GATTCGACTGT) | 0 |
| CTGTCCTCATGGACCGGTTTTCCCGGTAATCCGTATTTGTT (site CTGTCCTCTAA) | 1.92 |
| CCTTAAGCATGGACCGGTTTTCCCGGTAATCCGTATTTGAT (site CCTTAAGCTAT) | 0.00726 |
| CTTGAGACATGGACCGGTTTTCCCGGTAATCCGTATTTGGT (site GTTGAGACTAC) | 0.00699 |
| AGCCTTTCATGGACCGGTTTTCCCGGTAATCCGTATTTGAA (site AGCCTTTCTGT) | 0 |

| Sequence | recombinant UMI read abundance (log10) |
| --- | --- |
| GGACGTCCATGGACCGGTTTTCCCGGTAATCCGTATTTGCC (site GGACGTCCTGG) | 1.75 |
| ATCCATACATGGACCGGTTTTCCCGGTAATCCGTATTTGAC (site ATCAATACTGT) | 0 |
| CGATGCTCATGGACCGGTTTTCCCGGTAATCCGTATTTGAA (site CAATGCTCTTT) | 0.249 |
| TTCCTATCATGGACCGGTTTTCCCGGTAATCCGTATTTGCA (site TTCCTATCTTG) | 1.53 |
| ACTACAACATGGACCGGTTTTCCCGGTAATCCGTATTTGTG (site ACTACAACTCA) | 0.339 |
| TAGGATTCATGGACCGGTTTTCCCGGTAATCCGTATTTGCG (site TAGGACTCTCG) | 1.68 |
| CACAGCCCATGGACCGGTTTTCCCGGTAATCCGTATTTGTT (site CACTGCCCTAA) | 0.018 |
| AGGACTACATGGACCGGTTTTCCCGGTAATCCGTATTTGAC (site AGGACTTCTGT) | 0.0138 |
| GTGCATCCATGGACCGGTTTTCCCGGTAATCCGTATTTGGT (site GTGCATCCTAC) | 0.56 |
| CCGTTTACATGGACCGGTTTTCCCGGTAATCCGTATTTGCT (site TCGTTTACTAG) | 0 |
| GACAAAGCATGGACCGGTTTTCCCGGTAATCCGTATTTGGT (site GACAAAGCTAC) | 1.13 |
| GATTACCCATGGACCGGTTTTCCCGGTAATCCGTATTTGCT (site GATTATCCTAG) | 0 |
| CTGCTGCCATGGACCGGTTTTCCCGGTAATCCGTATTTGCT (site CTGCTCCCTAG) | 0.506 |
| CGGGAGCCATGGACCGGTTTTCCCGGTAATCCGTATTTGCT (site CGGGAGCCTAG) | 0.17 |
| GATTATCCATGGACCGGTTTTCCCGGTAATCCGTATTTGCT (site GATTAGCCTAG) | 0.351 |
| CCCTACCCATGGACCGGTTTTCCCGGTAATCCGTATTTGCC (site CCCTACCCTGG) | 0.541 |
| AGGACTGCATGGACCGGTTTTCCCGGTAATCCGTATTTGAC (site AGGACTGCTGT) | 2.92 |
| GAAGATTCATGGACCGGTTTTCCCGGTAATCCGTATTTGTT (site GAAGATTCTAT) | 1.5 |
| ACTAGCACATGGACCGGTTTTCCCGGTAATCCGTATTTGAG (site ACTAGAACTCT) | 0.495 |
| CACCTTACATGGACCGGTTTTCCCGGTAATCCGTATTTGTC (site CACCTTACTGA) | 0 |
| ATTAGTGCATGGACCGGTTTTCCCGGTAATCCGTATTTGGT (site AATAGTGCTAC) | 0.125 |
| GGCAATCCATGGACCGGTTTTCCCGGTAATCCGTATTTGAA (site GGCAATCCTCT) | 0.0139 |
| ATAGCATCATGGACCGGTTTTCCCGGTAATCCGTATTTGCA (site ACAGTATCTTG) | 1.65 |
| TCCAGCGCATGGACCGGTTTTCCCGGTAATCCGTATTTGCG (site TCCACCGCTCG) | 0.0119 |
| GCTTGCGCATGGACCGGTTTTCCCGGTAATCCGTATTTGAT (site GCTTGCGCTAT) | 1.72 |

| Sequence | recombinant UMI read abundance (log10) |
| --- | --- |
| AACGGCCCATGGACCGGTTTTCCCGGTAATCCGTATTTGTT (site TACGGCCCTAA) | 0.00583 |
| ACAGTATCATGGACCGGTTTTCCCGGTAATCCGTATTTGCA (site ACAGAATCTAG) | 0 |
| AATGTAACATGGACCGGTTTTCCCGGTAATCCGTATTTGCT (site AATGTATCTAG) | 1.67 |
| CAAGTCGCATGGACCGGTTTTCCCGGTAATCCGTATTTGGT (site CAAGTCGCTAC) | 1.77 |
| CAGGCGACATGGACCGGTTTTCCCGGTAATCCGTATTTGGG (site CAGTCGACTCC) | 0.0086 |
| GGATGCACATGGACCGGTTTTCCCGGTAATCCGTATTTGTA (site GAATGCACTTA) | 0.31 |
| CACGGTCCATGGACCGGTTTTCCCGGTAATCCGTATTTGTT (site CACGGTCCTAA) | 1.4 |
| GTAGCTGCATGGACCGGTTTTCCCGGTAATCCGTATTTGTG (site ATAGCTGCTCA) | 0.436 |
| CCTAATACATGGACCGGTTTTCCCGGTAATCCGTATTTGAC (site CCTAATACTGA) | 0 |
| GTAGGTACATGGACCGGTTTTCCCGGTAATCCGTATTTGGC (site GTAGGTACTGG) | 0.159 |
| CACTACTCATGGACCGGTTTTCCCGGTAATCCGTATTTGCC (site CACTCCTCTGG) | 0.801 |
| TAGCGTACATGGACCGGTTTTCCCGGTAATCCGTATTTGTA (site TAGCGTACTTA) | 1.2 |
| AAGGACGCATGGACCGGTTTTCCCGGTAATCCGTATTTGGG (site AAGAACGCTCC) | 0.307 |
| ACAGTATCATGGACCGGTTTTCCCGGTAATCCGTATTTGCA (site AAAGTAACTTG) | 0.587 |
| CTGCATGCATGGACCGGTTTTCCCGGTAATCCGTATTTGGT (site ATGCATGCTAC) | 0.0144 |
| CAGTCAACATGGACCGGTTTTCCCGGTAATCCGTATTTGGG (site CAGTCCACTCC) | 0.018 |
| CCCACTACATGGACCGGTTTTCCCGGTAATCCGTATTTGTT (site CCCACTACTAA) | 0.141 |
| TTCGCGGCATGGACCGGTTTTCCCGGTAATCCGTATTTGCT (site TTAGCGGCTAG) | 0.33 |
| TCGTTTACATGGACCGGTTTTCCCGGTAATCCGTATTTGCT (site GCGTTTACTAG) | 0 |
| CTATTAACATGGACCGGTTTTCCCGGTAATCCGTATTTGGA (site CTACTAACTTC) | 0.342 |
| CGGTAGTCATGGACCGGTTTTCCCGGTAATCCGTATTTGCC (site CGGGAGTCTGG) | 0 |
| CGGTTAGCATGGACCGGTTTTCCCGGTAATCCGTATTTGTG (site CCGTTAGCTCA) | 0 |
| TCCGATTCATGGACCGGTTTTCCCGGTAATCCGTATTTGCC (site TCCCATTCTGG) | 0 |
| GATAGGACATGGACCGGTTTTCCCGGTAATCCGTATTTGTT (site GATAGGACTAA) | 1.43 |
| CTGGAACCATGGACCGGTTTTCCCGGTAATCCGTATTTGCA (site CTGGAAACTTG) | 0 |
